Key:
breast cancer patients = assay: Retrospective EMR analysis of overall survival of breast cancer patients; assay type: in vivo, human
MCF7/FASN cells = assay: Colony formation assay, MCF7 cells with ectopic FASN over-expression; assay type: cell-based, human; conditions: ectopic FASN over-expression vs MCF7/Vec
M3K/Sh cells = assay: Colony formation assay, MCF7/AdVp3000 cells with FASN knockdown; assay type: cell-based, human; conditions: FASN knockdown vs M3K/Scr
PARP1 expression = assay: Western blot analysis of PARP1 expression; assay type: cell-based, human; conditions: MCF7, T47D, MDA-MB-231 and MDA-MB-468 cells, different concentrations
[1] = system: NHEJ activity in MCF7 cells; assay: Host cell reactivation assay of NHEJ activity, MCF7; assay type: cell-based, human
[2] = system: NHEJ activity in MDA-MB-468 cells; assay: Host cell reactivation assay of NHEJ activity, MDA-MB-468; assay type: cell-based, human; conditions: 10 µM twice a day for three days
[3] = system: homologous recombination activity; assay: Host cell reactivation assay of homologous recombination activity; assay type: cell-based, human; conditions: 10 µM twice a day for three days
γ-H2AX in MCF7 cells = assay: γ-H2AX level; assay type: cell-based, human
[4] = system: γ-H2AX in MDA-MB-468 cells; assay: γ-H2AX level; assay type: cell-based, human
MCF7 cells [5] = assay: Flow cytometry of apoptosis and cell cycle, MCF7; assay type: cell-based, human
MDA-MB-468 cells [6] = assay: Flow cytometry of apoptosis and cell cycle, MDA-MB-468; assay type: cell-based, human
MCF7 cells [7] = assay: Colony formation combination study with doxorubicin; assay type: cell-based, human; conditions: combination with doxorubicin at potency ratios 50/50, 25/75, 75/25
MDA-MB-468 cells [8] = assay: as above; assay type: cell-based, human; conditions: combination with doxorubicin at potency ratios 50/50, 25/75, 75/25
MCF7 cells [9] = assay: Colony formation combination with ionizing radiation, MCF7; assay type: cell-based, human; conditions: pre-treated with 10 µM once a day for 3 days
MDA-MB-468 cells [10] = assay: Colony formation combination with ionizing radiation, MDA-MB-468; assay type: cell-based, human; conditions: pre-treated with 10 µM once a day for 3 days
[11] = molecular target: thioesterase (TE) domain of FASN (Homo sapiens, UniProt P49327); assay: TE activity assay with recombinant TE; conditions: recombinant TE 500 nM
TNBC patients = conditions: high dose omeprazole added to neoadjuvant TNBC treatment; cited from earlier work
db/+ and db/db mice = conditions: chronic use, cited from earlier work
[12] = esomeprazole users vs omeprazole users, pairwise comparison
[13] = users of the PPI vs non-PPI users
[14] = 10–20 mg users vs non-PPI users

Sequence of thioesterase (TE) domain of FASN (P49327 2207-2511 limits assumed): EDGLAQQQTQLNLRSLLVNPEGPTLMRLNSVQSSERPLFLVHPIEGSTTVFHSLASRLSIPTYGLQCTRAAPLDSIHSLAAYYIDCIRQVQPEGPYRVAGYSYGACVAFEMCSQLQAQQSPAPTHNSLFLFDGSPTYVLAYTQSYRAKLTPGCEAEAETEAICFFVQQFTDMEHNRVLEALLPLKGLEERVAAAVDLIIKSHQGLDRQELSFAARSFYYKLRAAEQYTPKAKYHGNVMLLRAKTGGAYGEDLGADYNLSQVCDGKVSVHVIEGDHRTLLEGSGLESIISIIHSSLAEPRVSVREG

With COc1ccc2nc([S@@+]([O-])Cc3ncc(C)c(OC)c3C)[nH]c2c1 [esomeprazole] the “Overall survival, multivariant HR” value (breast cancer patients; 20 mg users vs non-PPI users) was 0.73, the “Overall survival, univariant HR” value (breast cancer patients; 20 mg users vs non-PPI users) was 1.0 and the “Overall survival, multivariant HR” value (breast cancer patients; 40 mg users vs non-PPI users) was 0.33. The “Overall survival, univariant HR” value (breast cancer patients; 40 mg users vs non-PPI users) was 0.3, the “Overall survival, multivariate HR” value (breast cancer patients; [12]) was 1.64 and the “Overall survival, univariate HR” value (breast cancer patients; [12]) was 1.62. For the same compound, the “Overall survival, univariate HR” value (breast cancer patients; [13]) was 0.52.
In the case of Cc1c(OCC(F)(F)F)ccnc1C[S+]([O-])c1nc2ccccc2[nH]1 (centres unmarked) [lansoprazole], the “Lansoprazole resistance (relative resistance factor)” value (MCF7/FASN cells) is reported as “increased”, the “Lansoprazole resistance (relative resistance factor)” value (M3K/Sh cells) is reported as “reduced” and the PARP1 expression (PARP1 expression) is reported as “dose-dependently reduced”. For the same compound, the NHEJ activity ([1]; MCF7, 10 µM twice a day for three days) was “significantly reduced”, the “NHEJ activity with ectopic FASN over-expression” value ([1]; MCF7 cells over-expressing ectopic FASN) was “rescued NHEJ activity” and the NHEJ activity [2] was “significantly reduced”. The Homologous recombination activity [3] was “did not change”, the γ-H2AX level (γ-H2AX in MCF7 cells; MCF7, lansoprazole alone) was “increased γ-H2AX level in a dose-dependent manner” and the “γ-H2AX level at 4 hrs post-IR versus 1 hr” value (γ-H2AX in MCF7 cells; MCF7, lansoprazole pre-treatment, 5 Gy IR) was “no reduction”. For the same compound, the “Doxorubicin-induced γ-H2AX production” value (γ-H2AX in MCF7 cells; MCF7, lansoprazole with doxorubicin) was “synergistically increased”, the “Lansoprazole-induced γ-H2AX increase with ectopic FASN over-expression” value (γ-H2AX in MCF7 cells; over-expressing ectopic FASN) was “ablated” and the γ-H2AX level ([4]; MDA-MB-468, lansoprazole alone) was “increased γ-H2AX level in a dose-dependent manner”. For the same compound, the “γ-H2AX level at 4 hrs post-IR versus 1 hr” value ([4]; MDA-MB-468, lansoprazole pre-treatment, 5 Gy IR) was “no reduction”, the “Doxorubicin-induced γ-H2AX production” value ([4]; MDA-MB-468, lansoprazole with doxorubicin) was “synergistically increased” and the Apoptosis (MCF7 cells [5]) was “dose-dependently induced apoptosis”. The Apoptosis (MDA-MB-468 cells [6]; MDA-MB-468) was “dose-dependently induced apoptosis”, the “Cell cycle arrest phase” value (MDA-MB-468 cells [6]; MDA-MB-468, dose-dependent) was “S phase” and the Combination index (MCF7 cells [7]) was under 1.0. The Combination index (MDA-MB-468 cells [8]) was under 1.0, the “Sensitization to IR treatment” value (MCF7 cells [9]) was “sensitized” and the “Sensitization to IR treatment” value (MDA-MB-468 cells [10]) was “sensitized”. The “Overall survival, univariate HR” value (breast cancer patients; [13]) was 0.20.
With Cc1c(OCC(F)(F)F)ccnc1C[S@@+]([O-])c1nc2ccccc2[nH]1 [R-lansoprazole, dexlansoprazole] the “Inhibition of TE activity of FASN (Ki), enantiomer comparison” value [11] was “significantly more effective than the S-lansoprazole”.
In the case of COc1ccc2[nH]c([S+]([O-])Cc3ncc(C)c(OC)c3C)nc2c1 (centres unmarked) [omeprazole], the “Overall survival, multivariant HR” value (breast cancer patients; 40 mg users vs non-PPI users) is reported as 0.12, the “Overall survival, univariant HR” value (breast cancer patients; 40 mg users vs non-PPI users) is reported as 0.21 and the “Overall survival, multivariant HR” value (breast cancer patients; [14]) is reported as 0.28. For the same compound, the “Overall survival, univariant HR” value (breast cancer patients; [14]) was 0.33, the “Overall survival, univariate HR” value (breast cancer patients; [13]) was 0.33 and the “FASN activities in tumors” value (TNBC patients) was “inhibited”. The Toxicity (TNBC patients) was “without adding toxicity” and the pCR rate (TNBC patients) was ~ 74%.
For CC12C[C@@]34C=CC(=O)[C@@](C)(CCC(=O)Nc5c(O)ccc(C(=O)O)c5O)C3[C@H](CC1C4)O2 (some centres unmarked) [platensimycin], the Insulin sensitivity (db/+ and db/db mice; db/+ mice fed with high-fructose diet) is listed as “improved insulin sensitivity” and the Ambient glucose levels (db/+ and db/db mice; db/db mice) is listed as “reduced ambient glucose levels”.
With COc1ccnc(C[S+]([O-])c2nc3ccc(OC(F)F)cc3[nH]2)c1OC (centres unmarked) [pantoprazole] the “Overall survival, univariate HR” value (breast cancer patients; [13]) was 0.43.
